Read-outs that look alike come from different tables or passages of the source.
Assays:
[1] = test system: S. epidermidis S2400-1 biofilm; assay: Biofilm prevention, BisEDT-antibiotic combinations; type: cell-based, Staphylococcus epidermidis; details: for Δ (0.05 BE), biofilm prevention: 0.05 μg/ml BisEDT
Method: (§1) S. epidermidis grown in TSB+2% glucose in polystyrene plates for 48 h at 37° C. Gatifloxacin (GF), clindamycin (CM), minocycline (MC), gentamicin (GM), vancomycin (VM), cefazolin (CZ), nafcillin (NC), and rifampicin (RP). […]

MRSA clinical isolates [2] = details: cited from earlier work; for MIC Standards, R (resistance): Standard MIC breakpoint for resistance; for MIC Standards, S (antibiotic sensitivity): Standard MIC breakpoint for sensitivity
[3] = test system: MRSA clinical isolates biofilm; assay: Biofilm-prevention concentration (BPC) in BHIG/X medium with subMIC BisEDT; type: cell-based, Staphylococcus aureus; details: 12 MRSA clinical isolates, mean ± SD
Method: (§2) Broth dilution antimicrobial susceptibility studies were performed against 12 MRSA strains using several antibiotics combined with subMIC levels of BisEDT (Table 18). Both the biofilm-prevention concentration (BPC) and the minimum inhibitory concentration (MIC) were determined in a special biofilm culture medium (BHIG/X). […] These strains were already sensitive to vancomycin, but were made considerably moreso in the presence of subMIC BisEDT.

S. epidermidis = assay: Broth dilution MIC/MBC, BT-antibiotic combinations; type: cell-based, Staphylococcus epidermidis; details: for Δ (0.05 BE), MIC / Δ, MIC: 0.05 μg/ml BisEDT; for Δ (0.1 BE), MBC: 0.1 μg/ml BisEDT
Method: Materials & Methods. Susceptibility studies were performed by broth dilution in 96-well tissue culture plates (Nalge Nunc International, Denmark) in accordance with NCCLS protocols (National Committee for Clinical Laboratory Standards. (1997). Methods for Dilution Antimicrobial Susceptibility Tests for Bacteria that Grow Aerobically: Approved Standard M7-A2 and Informational Supplement M100-S10. NCCLS, Wayne, Pa., USA).
Briefly, overnight bacterial cultures were used to prepare 0.5 McFarland standard suspensions, which were further diluted 1:50 (˜2×10^6 cfu/mL) in cation-adjusted Mueller-Hinton broth medium (BBL, Cockeysville, Md., USA). BTs (prepared as described above) and antibiotics were added at incremental concentrations, keeping the final volume constant at 0.2 mL. Cultures were incubated for 24 h at 37° C. and turbidity was assessed by absorption at 630 nm using an ELISA plate reader (Biotek Instruments, Winooski, Vt., USA) according to the manufacturer's recommendations. […] Viable bacterial counts (cfu/mL) were determined by standard plating on nutrient agar.
The checkerboard method was used to assess the activity of antimicrobial combinations. The fractional inhibitory concentration index (FICI) and the fractional bactericidal concentration index (FBCI) were calculated, according to Eliopoulos et al. (Eliopoulos and Moellering, (1996) Antimicrobial combinations. In Antibiotics in Laboratory Medicine (Lorian, V., Ed.), pp. 330-96, Williams and Wilkins, Baltimore, Md., USA). Synergy was defined as an FICI or FBCI index of […], no interaction at >0.5-4 and antagonism at >4 (Odds, F C (2003) Synergy, antagonism, and what the chequerboard puts between them. Journal of Antimicrobial Chemotherapy 52:1). Synergy was also defined conventionally as ≧4-fold decrease in antibiotic concentration.

S. epidermidis biofilm = assay: Biofilm prevention concentration (BPC), BisEDT and antibiotics; type: cell-based, Staphylococcus epidermidis; details: for Fold reduction of BPC in presence of subMIC BisEDT: TSB + 2% glucose, 48 h
Method: as §1

MRSA clinical isolates [4] = assay: Broth dilution MIC in BHIG/X medium with subMIC BisEDT; type: cell-based, Staphylococcus aureus; details: Staphylococcus aureus, MRSA, 12 MRSA clinical isolates, BHIG/X, mean ± SD
Method: as §2
In this particular study, the data indicated synergy between BisEDT and cefepime (FIC<0.5), with many of the isolates at the breakpoint for sensitivity.

[5] = test system: lawn of MRSA (Methicillin-resistant S. aureus); assay: Antibiotic-soaked discs on bacterial lawn with and without BisEDT; type: cell-based, Staphylococcus aureus; details: antibiotic discs combined with BisEDT 0.05 μg/ml
Method: FIGS. 4A and 4B show the subinhibitory BisEDT reversing antibiotic-resistance to several antibiotics. Effects of antibiotics with and without BisEDT (0.05 μg/ml) on a lawn of MRSA (Methicillin-resistant S. aureus) is shown. […] [GM=gentamicin, CZ=cefazolin, FEP=cefepime, IPM=imipenim, SAM=ampicillin/sulbactam, LVX=levofloxacin.

Escherichia coli = assay: Single-point BisEDT-antibiotic combination FICI; type: cell-based
Bukholderia multivorans = assay: Single-point BisEDT-antibiotic combination FICI; type: cell-based; details: Bmult 5665
Burkholderia cepacia = assay: Single-point BisEDT-antibiotic combination FICI; type: cell-based; details: Bcep 1756
Acinetobacter baumanii = assay: Single-point BisEDT-antibiotic combination FICI; type: cell-based; details: Abau 2594
[6] = test system: Staphylococcus aureus (SA, MRSA); assay: Single-point BisEDT-antibiotic combination FICI; type: cell-based
Pseudomonas aeruginosa = assay: Single-point BisEDT-antibiotic combination FICI; type: cell-based; details: PA 1380
[7] = test system: Streptococcus pneumoniae (SP, PRSP); assay: Single-point BisEDT-antibiotic combination FICI; details: PRSP 5348
Enterococcus faecalis = assay: Single-point BisEDT-antibiotic combination FICI; type: cell-based; details: E Fc 3121
Klebsiella pneumoniae = assay: Single-point BisEDT-antibiotic combination FICI; type: cell-based; details: KP 1231
[8] = S. epidermidis S2400-1, BisEDT 0 μg/ml
[9] = S. epidermidis S2400-1, BisEDT 0.0 μg/ml
[10] = S. epidermidis S2400-1, BisEDT 0.05 μg/ml
[11] = S. epidermidis S2400-1, BisEDT 0.1 μg/ml
[12] = S. epidermidis ATCC 35984, BisEDT 0.0 μg/ml
[13] = S. epidermidis ATCC 35984, BisEDT 0.05 μg/ml

Row | Structure (SMILES) | Δ (0.05 BE), MIC (S. epidermidis; S. epidermidis S2400-1) | MIC (S. epidermidis; [8]) | MIC (S. epidermidis; [10]) | MIC (S. epidermidis; [11]) | Δ, MIC (S. epidermidis; S. epidermidis ATCC 35984) | MIC (S. epidermidis; [12]) | Δ (0.05 BE), biofilm prevention [1] | Biofilm Prevention (antibiotic concentration) ([1]; BisEDT 0 μg/ml) | Biofilm Prevention (antibiotic concentration) ([1]; BisEDT 0.05 μg/ml) | Biofilm Prevention (antibiotic concentration) ([1]; BisEDT 0.1 μg/ml) | MIC Standards, R (resistance) (MRSA clinical isolates [2]) | MIC Standards, S (antibiotic sensitivity) (MRSA clinical isolates [2]) | BPC ([3]; BisEDT 0 μg/mL) | BPC ([3]; BisEDT 0.025 μg/mL) | BPC ([3]; BisEDT 0.05 μg/mL) | BPC ([3]; BisEDT 0.1 μg/mL) | Δ (0.1 BE), MBC (S. epidermidis; S. epidermidis S2400-1) | MBC (S. epidermidis; [9]) | MBC (S. epidermidis; [11]) | Fold reduction of BPC in presence of subMIC BisEDT (S. epidermidis biofilm) | also measured
1 | Cc1cc(NS(=O)(=O)c2ccc(N)cc2)no1 [sulphamethoxazole] |  |  |  |  |  |  |  |  |  |  |  |  |  |  |  |  |  |  |  |  | Antibiotic action on MRSA lawn with subMIC BisEDT [5]: enhanced antibiotic action
2 | CCC[C@@H]1C[C@@H](C(=O)N[C@@H]([C@H]2O[C@H](SC)[C@H](O)[C@@H](O)[C@H]2O)[C@H](C)Cl)N(C)C1 [Clindamycin, clindamycin] | 2.67 | 2048 µg/mL | 768 µg/mL | 24 µg/mL | 2 | 2048.00 µg/mL | 24.9 | 1195 µg/mL | 48 µg/mL | 12 µg/mL |  |  |  |  |  |  | 2.67 | 2048 µg/mL | 768 µg/mL | 50 fold | MIC (S. epidermidis; [13]): 1024.00 µg/mL
3 | CN[C@H](CC(C)C)C(=O)N[C@H]1C(=O)N[C@@H](CC(N)=O)C(=O)N[C@H]2C(=O)N[C@H]3C(=O)N[C@H](C(=O)N[C@H](C(=O)O)c4cc(O)cc(O)c4-c4cc3ccc4O)[C@H](O)c3ccc(c(Cl)c3)Oc3cc2cc(c3O[C@@H]2O[C@H](CO)[C@@H](O)[C@H](O)[C@H]2O[C@H]2C[C@](C)(N)[C@H](O)[C@H](C)O2)Oc2ccc(cc2Cl)[C@H]1O [Vancomycin, vancomycin] | 1.40 | 3.2 µg/mL | 2.3 µg/mL | 0.3 µg/mL |  |  | 3.6 | 3.2 µg/mL | 0.9 µg/mL | 0.1 µg/mL | ≧32 μg/ml | ≦4 μg/ml | 2.5 ± 1.7 µg/mL | 1.5 ± 0.6 µg/mL | 1.3 ± 0.5 µg/mL | 0.7 ± 0.4 µg/mL | 3.86 | 5.4 µg/mL | 1.4 µg/mL |  | Synergy, MBC (S. epidermidis; S. epidermidis S2400-1): borderline; Change of biofilm prevention concentration (BPC) (S. epidermidis biofilm; 0.05 μg/ml BisEDT): modest decreases; MIC (MRSA clinical isolates [4]; BisEDT 0 μg/mL): 2.5 ± 1.7 µg/mL; MIC (MRSA clinical isolates [4]; BisEDT 0.025 μg/mL): 2.5 ± 1.7 µg/mL; MIC (MRSA clinical isolates [4]; BisEDT 0.05 μg/mL): 1.5 ± 0.6 µg/mL; MIC (MRSA clinical isolates [4]; BisEDT 0.1 μg/mL): 1.3 ± 0.5 µg/mL

Further lines, with some results ahead:

Row | Δ (0.05 BE), MIC (S. epidermidis; S. epidermidis S2400-1) | MIC (S. epidermidis; [8]) | MIC (S. epidermidis; [10]) | MIC (S. epidermidis; [11]) | Δ, MIC (S. epidermidis; S. epidermidis ATCC 35984) | MIC (S. epidermidis; [12]) | Structure (SMILES) | Δ (0.05 BE), biofilm prevention [1] | Biofilm Prevention (antibiotic concentration) ([1]; BisEDT 0 μg/ml) | Biofilm Prevention (antibiotic concentration) ([1]; BisEDT 0.05 μg/ml) | Biofilm Prevention (antibiotic concentration) ([1]; BisEDT 0.1 μg/ml) | MIC Standards, R (resistance) (MRSA clinical isolates [2]) | MIC Standards, S (antibiotic sensitivity) (MRSA clinical isolates [2]) | BPC ([3]; BisEDT 0 μg/mL) | BPC ([3]; BisEDT 0.025 μg/mL) | BPC ([3]; BisEDT 0.05 μg/mL) | BPC ([3]; BisEDT 0.1 μg/mL) | Δ (0.1 BE), MBC (S. epidermidis; S. epidermidis S2400-1) | MBC (S. epidermidis; [9]) | MBC (S. epidermidis; [11]) | Fold reduction of BPC in presence of subMIC BisEDT (S. epidermidis biofilm) | also measured
4 | 2.13 | 1.7 µg/mL | 0.8 µg/mL | 0.3 µg/mL |  |  | COc1c(N2CCNC(C)C2)c(F)cc2c(=O)c(C(=O)O)cn(C3CC3)c12 (centres unmarked) [Gatifloxacin, gatifloxacin] | 16.0 | 1.6 µg/mL | 0.1 µg/mL | 0.1 µg/mL | ≧8 μg/ml | ≦2 μg/ml | 3.6 ± 2.6 µg/mL | 2.6 ± 0.9 µg/mL | 2.4 ± 1.1 µg/mL | 0.9 ± 0.8 µg/mL | 2.00 | 2.8 µg/mL | 1.4 µg/mL | 10 fold | MIC (MRSA clinical isolates [4]; BisEDT 0 μg/mL, read-out: MIC): 3.6 ± 2.6 µg/mL; MIC (MRSA clinical isolates [4]; BisEDT 0.025 μg/mL, read-out: MIC): 4 ± 2.8 µg/mL; MIC (MRSA clinical isolates [4]; BisEDT 0.05 μg/mL, read-out: MIC): 4 ± 2.8 µg/mL; MIC (MRSA clinical isolates [4]; BisEDT 0.1 μg/mL, read-out: MIC): 2.4 ± 1.1 µg/mL
5 | 2.63 | 1.13 µg/mL | 0.43 µg/mL | 0.10 µg/mL | 3.3 | 0.13 µg/mL | CN(C)c1ccc(O)c2c1C[C@H]1C[C@H]3[C@H](N(C)C)C(O)=C(C(N)=O)C(=O)[C@@]3(O)C(O)=C1C2=O [Minocycline, minocycline] | 1.2 | 0.85 µg/mL | 0.73 µg/mL | 0.08 µg/mL |  |  |  |  |  |  | 1.00 | 1.20 µg/mL | 1.20 µg/mL |  | FICI, single-point BisEDT-antibiotic combination (Escherichia coli; EC 102): 1.37; FICI, single-point BisEDT-antibiotic combination (Escherichia coli; EC 2232): 1.04; FICI, single-point BisEDT-antibiotic combination (Bukholderia multivorans): 1.12; FICI, single-point BisEDT-antibiotic combination (Burkholderia cepacia): 2.23; FICI, single-point BisEDT-antibiotic combination (Acinetobacter baumanii): 1.29; FICI, single-point BisEDT-antibiotic combination ([6]; MRSA 773): 1.23; FICI, single-point BisEDT-antibiotic combination ([6]; SA 100): 1.09; MIC (S. epidermidis; [13]): 0.04 µg/mL; FICI, single-point BisEDT-antibiotic combination (Pseudomonas aeruginosa): 0.99; FICI, single-point BisEDT-antibiotic combination [7]: 0.46; FICI, single-point BisEDT-antibiotic combination (Enterococcus faecalis): 1.11; FICI, single-point BisEDT-antibiotic combination (Klebsiella pneumoniae): 1.29
